Test systems include K-562 leukemia; NCI-H522 lung; UACC-62 melanoma; SNB-19 CNS; SF-295 CNS; LOX IMVI melanoma; COLO 205 colon; MALME-3M melanoma; UACC-257 melanoma; SK-MEL-28 melanoma.
Holding throughout (test): growth of human tumour cells (NCI), 48 h

Experimental findings from PubChem BioAssay (NCI) are described below.

Each structure is given as a SMILES string.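 Grown in 96-well plates, cells were treated for 48 hours with each compound at five concentrations. Insufficient inhibition: endpoint recorded as highest concentration tested. GI50: concentration for 50% inhibition of growth. Definition used: TGI = concentration required for complete inhibition of growth.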

Turning to `CN(C)c1ccc(C(=O)c2ccc(N(C)C)c(N)c2)cc1N`, the GI50 in the assay with K-562 leukemia is 0.867 µM; with NCI-H522 lung, 0.346 µM; in the assay on UACC-62 melanoma it was 2.32 µM; in the assay on SNB-19 CNS it was 16.7 µM; with SF-295 CNS it was 2.03 µM; with LOX IMVI melanoma it was 7.75 µM. Moreover, the GI50 with COLO 205 colon is 2.32 µM; in the assay on UACC-257 melanoma it was above 100 µM; in the assay on SK-MEL-28 melanoma, 12.8 µM. The TGI with K-562 leukemia is above 86.5 µM; with NCI-H522 lung, 4.61 µM; in the assay with UACC-62 melanoma, above 64.5 µM; in the assay on SNB-19 CNS it was above 39.3 µM; in the assay with SF-295 CNS, 33.4 µM; in the assay on LOX IMVI melanoma, above 100 µM. The TGI is 18.5 µM in the assay with COLO 205 colon, above 100 µM in the assay on MALME-3M melanoma, above 100 µM in the assay on UACC-257 melanoma and above 100 µM with SK-MEL-28 melanoma.

On to `CN(C)C(=S)NN=C(c1ccccn1)c1ccccn1`, for which the TGI in the assay with K-562 leukemia is above 100 µM; in the assay with NCI-H522 lung, 19.1 µM; in the assay on UACC-62 melanoma, 0.739 µM; in the assay with SNB-19 CNS, above 100 µM; in the assay on SF-295 CNS, 18.6 µM; with LOX IMVI melanoma it was 11.5 µM. Besides, the TGI in the assay with COLO 205 colon was determined as 11.8 µM; in the assay with MALME-3M melanoma, 0.503 µM; with UACC-257 melanoma it was 2.51 µM; with SK-MEL-28 melanoma, 18.2 µM. Besides, the GI50 was 0.124 µM in the assay with NCI-H522 lung; 0.077 µM in the assay on UACC-62 melanoma; 3.13 µM with SNB-19 CNS; 0.0421 µM in the assay on SF-295 CNS; below 0.01 µM with LOX IMVI melanoma; below 0.01 µM in the assay on COLO 205 colon. Besides, the GI50 was below 0.0331 µM in the assay on MALME-3M melanoma, below 0.012 µM in the assay with UACC-257 melanoma and 0.131 µM in the assay with SK-MEL-28 melanoma.

In the case of `O=C1c2ccccc2-c2c1c1ccc([N+](=O)[O-])cc1c(=O)n2CCNCCCNCCn1c2c(c3ccc([N+](=O)[O-])cc3c1=O)C(=O)c1ccccc1-2`, the GI50 with K-562 leukemia was 0.0492 µM; with NCI-H522 lung, 1.14 µM; with UACC-62 melanoma, 0.372 µM; in the assay with SNB-19 CNS it was 0.126 µM; in the assay with SF-295 CNS, 0.0715 µM; with LOX IMVI melanoma, 0.0791 µM. Besides, the GI50 with COLO 205 colon is 0.433 µM; in the assay on MALME-3M melanoma, 0.626 µM; in the assay with UACC-257 melanoma it was 8.89 µM; with SK-MEL-28 melanoma it was 1.29 µM. Moreover, the TGI was 28.2 µM with K-562 leukemia; 19.5 µM with NCI-H522 lung; 2.03 µM in the assay on UACC-62 melanoma; 4.94 µM in the assay on SNB-19 CNS; 19.9 µM in the assay on SF-295 CNS; 2.55 µM in the assay on LOX IMVI melanoma. The TGI in the assay on COLO 205 colon amounted to 9.77 µM; with MALME-3M melanoma, 30.8 µM; with UACC-257 melanoma, 25.1 µM; with SK-MEL-28 melanoma, 10.2 µM.

Regarding `CNC(=O)c1c(NC(=O)c2cccc(C(F)(F)F)c2)sc2c1CCC(=O)C2`, the GI50 with K-562 leukemia is 0.135 µM; in the assay on NCI-H522 lung it was 0.075 µM; in the assay on UACC-62 melanoma, 0.414 µM; in the assay on SNB-19 CNS it was 0.356 µM; with SF-295 CNS, 0.36 µM; in the assay with LOX IMVI melanoma it was 0.339 µM. The GI50 was 0.382 µM in the assay on COLO 205 colon, 0.373 µM in the assay with MALME-3M melanoma, 1.9 µM in the assay with UACC-257 melanoma and 0.837 µM in the assay on SK-MEL-28 melanoma. The TGI in the assay with K-562 leukemia was above 100 µM; in the assay on NCI-H522 lung it was 0.549 µM; in the assay on UACC-62 melanoma, 2.14 µM; in the assay with SNB-19 CNS, above 100 µM; in the assay with SF-295 CNS, 1.88 µM; in the assay on LOX IMVI melanoma, 1.66 µM. The TGI in the assay on COLO 205 colon is 1.48 µM; in the assay on MALME-3M melanoma it was 2.28 µM; in the assay on UACC-257 melanoma it was 7.3 µM; in the assay with SK-MEL-28 melanoma, above 100 µM.

`CCc1ccc(-c2ccc(=O)n(-c3ccc(S(N)(=O)=O)cc3)n2)cc1`: the GI50 in the assay on K-562 leukemia is 0.297 µM; in the assay with NCI-H522 lung it was 0.182 µM; in the assay on UACC-62 melanoma, 0.84 µM; in the assay with SNB-19 CNS, 5.21 µM; in the assay on SF-295 CNS it was 0.992 µM; with LOX IMVI melanoma it was 11.7 µM. In addition, the GI50 with COLO 205 colon was 1.95 µM; in the assay with MALME-3M melanoma it was 0.371 µM; in the assay on UACC-257 melanoma, above 30.9 µM; in the assay on SK-MEL-28 melanoma, 6.73 µM. In addition, the TGI is above 46.6 µM in the assay on K-562 leukemia; 4.18 µM in the assay with NCI-H522 lung; above 100 µM in the assay with UACC-62 melanoma; 40.1 µM with SNB-19 CNS; 29.4 µM in the assay with SF-295 CNS; above 100 µM in the assay with LOX IMVI melanoma. Further, the TGI with COLO 205 colon was above 55.6 µM; in the assay on MALME-3M melanoma, 23.1 µM; with UACC-257 melanoma, above 100 µM; with SK-MEL-28 melanoma, above 100 µM.

With `COc1cc2c(cc1OCCCOC1=C=C=C(c3ccc4c(c3)c3cc(-c5ccc(OCCCOc6cc7c(cc6OC)C(=O)N6CCC[C@H]6C=N7)cc5)ccc3n4S(=O)(=O)c3ccc(C)cc3)C=C1)N=C[C@@H]1CCCN1C2=O`, the GI50 with K-562 leukemia was 1.06 µM; with NCI-H522 lung it was 3.53 µM; in the assay with UACC-62 melanoma, 1.89 µM; in the assay on SNB-19 CNS it was 3.5 µM; in the assay with SF-295 CNS, 1.14 µM; with LOX IMVI melanoma, 1.49 µM. Further, the GI50 in the assay on COLO 205 colon was 1.9 µM; with MALME-3M melanoma, 3.26 µM; with UACC-257 melanoma it was 6.71 µM; in the assay with SK-MEL-28 melanoma, 1.86 µM. In addition, the TGI in the assay with K-562 leukemia was above 18.6 µM; with NCI-H522 lung it was 39.6 µM; in the assay on UACC-62 melanoma, 8.76 µM; with SNB-19 CNS, 38.7 µM; in the assay on SF-295 CNS, 4.62 µM; with LOX IMVI melanoma, 7.51 µM. Besides, the TGI with COLO 205 colon came out at 9.78 µM; in the assay on MALME-3M melanoma, 10.2 µM; with UACC-257 melanoma, 15.6 µM; in the assay on SK-MEL-28 melanoma it was 4.97 µM.

As to `CCOCC(=O)N[C@H]1CCc2cc(OC)c(OC)c(OC)c2-c2ccc(SC)c(=O)cc21`, the TGI in the assay with K-562 leukemia was 12.5 µM; in the assay with NCI-H522 lung, below 0.01 µM; with UACC-62 melanoma it was above 100 µM; with SNB-19 CNS, above 100 µM; in the assay with SF-295 CNS it was 0.253 µM; with LOX IMVI melanoma, 69 µM. In addition, the TGI in the assay with COLO 205 colon is below 0.01 µM; in the assay on MALME-3M melanoma, above 100 µM; with UACC-257 melanoma, above 100 µM; in the assay with SK-MEL-28 melanoma it was above 100 µM.

With `COc1ccccc1/C=C1\CCC(CNc2ccc(Cl)cc2)C1=O` (stereo not drawn), the TGI came out at 19 µM in the assay with K-562 leukemia; 4.45 µM in the assay on NCI-H522 lung; 3.48 µM in the assay on UACC-62 melanoma; 25 µM in the assay on SNB-19 CNS; 15.4 µM in the assay on SF-295 CNS; 9.22 µM with LOX IMVI melanoma. For the same compound, the TGI in the assay on COLO 205 colon is above 32.7 µM; with MALME-3M melanoma, 28.4 µM; in the assay with UACC-257 melanoma, 26.7 µM; with SK-MEL-28 melanoma it was 26.4 µM.
